Experimental data: BindingDB's records for doi:10.1124/jpet.301.1.37 (National Institutes of Health, 2002)
Values joined by “and” are separate entries in the source; they are usually repeats but may differ in a detail not shown here. Equal entries are not always repeated.

How the values were obtained:
VIP peptides [1] = target: T1, VIP peptides (Cavia porcellus, UniProt P04566)
T1 sequence (P04566 whole entry): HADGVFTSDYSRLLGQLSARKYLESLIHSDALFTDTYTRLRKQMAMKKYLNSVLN

VIP peptides [2] = target: T2, VIP peptides (Homo sapiens, UniProt P01282)
T2 sequence (P01282 whole entry): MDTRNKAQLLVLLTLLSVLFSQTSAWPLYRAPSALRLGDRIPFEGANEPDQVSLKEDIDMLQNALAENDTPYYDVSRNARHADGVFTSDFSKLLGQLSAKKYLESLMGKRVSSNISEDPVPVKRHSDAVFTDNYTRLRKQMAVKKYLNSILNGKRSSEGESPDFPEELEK

Compound: CC[C@H](C)[C@H](NC(=O)[C@H](CO)NC(=O)[C@H](CC(N)=O)NC(=O)[C@H](CC(C)C)NC(=O)[C@H](Cc1ccc(O)cc1)NC(=O)[C@H](CCCCN)NC(=O)[C@H](CCCCN)NC(=O)[C@@H](NC(=O)[C@@H](C)NC(=O)[C@H](CCSC)NC(=O)[C@H](CCC(N)=O)NC(=O)[C@H](CCCCN)NC(=O)[C@H](CCCN=C(N)N)NC(=O)[C@H](CC(C)C)NC(=O)[C@H](CCCN=C(N)N)NC(=O)[C@@H](NC(=O)[C@H](Cc1ccc(O)cc1)NC(=O)[C@H](CC(N)=O)NC(=O)[C@H](CC(=O)O)NC(=O)[C@@H](NC(=O)[C@H](Cc1ccccc1)NC(=O)[C@@H](NC(=O)[C@H](C)NC(=O)[C@H](CC(=O)O)NC(=O)[C@H](CO)NC(=O)[C@@H](N)Cc1cnc[nH]1)C(C)C)[C@@H](C)O)[C@@H](C)O)C(C)C)C(=O)N[C@@H](CC(C)C)C(=O)N[C@@H](CC(N)=O)C(N)=O [VIP [D-Ala18]]
- Ki (VIP peptides [1]): 17.8 nM
- Ki (VIP peptides [2]): 3.5 nM and 15.4 nM and 12.1 nM

Compound: CC[C@H](C)[C@H](NC(=O)[C@H](CO)NC(=O)[C@H](CC(N)=O)NC(=O)[C@H](CC(C)C)NC(=O)[C@H](Cc1ccc(O)cc1)NC(=O)[C@H](CCCCN)NC(=O)[C@@H](CCCCN)NC(=O)[C@@H](NC(=O)[C@H](C)NC(=O)[C@H](CCSC)NC(=O)[C@H](CCC(N)=O)NC(=O)[C@H](CCCCN)NC(=O)[C@H](CCCN=C(N)N)NC(=O)[C@H](CC(C)C)NC(=O)[C@H](CCCN=C(N)N)NC(=O)[C@@H](NC(=O)[C@H](Cc1ccc(O)cc1)NC(=O)[C@H](CC(N)=O)NC(=O)[C@H](CC(=O)O)NC(=O)[C@@H](NC(=O)[C@H](Cc1ccccc1)NC(=O)[C@@H](NC(=O)[C@H](C)NC(=O)[C@H](CC(=O)O)NC(=O)[C@H](CO)NC(=O)[C@@H](N)Cc1cnc[nH]1)C(C)C)[C@@H](C)O)[C@@H](C)O)C(C)C)C(=O)N[C@@H](CC(C)C)C(=O)N[C@@H](CC(N)=O)C(N)=O [VIP [D-Lys20]]
- Ki (VIP peptides [1]): 17.3 nM
- Ki (VIP peptides [2]): 4.2 nM and 22.4 nM and 16.9 nM

Compound: H-HADAVFTDNYTRLRKQMAVKKYLNSILN-NH2 [VIP Ala2]
- Ki (VIP peptides [1]): 2.6 nM
- Ki (VIP peptides [2]): 0.43 nM and 3.6 nM and 2.7 nM

Compound: CC[C@H](C)[C@H](NC(=O)[C@H](CO)NC(=O)[C@H](CC(N)=O)NC(=O)[C@H](CC(C)C)NC(=O)[C@H](Cc1ccc(O)cc1)NC(=O)[C@@H](CCCCN)NC(=O)[C@H](CCCCN)NC(=O)[C@@H](NC(=O)[C@H](C)NC(=O)[C@H](CCSC)NC(=O)[C@H](CCC(N)=O)NC(=O)[C@H](CCCCN)NC(=O)[C@H](CCCN=C(N)N)NC(=O)[C@H](CC(C)C)NC(=O)[C@H](CCCN=C(N)N)NC(=O)[C@@H](NC(=O)[C@H](Cc1ccc(O)cc1)NC(=O)[C@H](CC(N)=O)NC(=O)[C@H](CC(=O)O)NC(=O)[C@@H](NC(=O)[C@H](Cc1ccccc1)NC(=O)[C@@H](NC(=O)[C@H](C)NC(=O)[C@H](CC(=O)O)NC(=O)[C@H](CO)NC(=O)[C@@H](N)Cc1cnc[nH]1)C(C)C)[C@@H](C)O)[C@@H](C)O)C(C)C)C(=O)N[C@@H](CC(C)C)C(=O)N[C@@H](CC(N)=O)C(N)=O [VIP [D-Lys21]]
- Ki (VIP peptides [1]): 100 nM
- Ki (VIP peptides [2]): 93.3 nM and 118 nM and 105 nM

Compound: H-HSDAVFTDNATRLRKQMAVKKYLNSILN-NH2 [VIP Ala10]
- Ki (VIP peptides [1]): 54.9 nM
- Ki (VIP peptides [2]): 61.7 nM and 56.2 nM and 44.7 nM

Compound: CC[C@@H](C)[C@@H](NC(=O)[C@H](CO)NC(=O)[C@H](CC(N)=O)NC(=O)[C@H](CC(C)C)NC(=O)[C@H](Cc1ccc(O)cc1)NC(=O)[C@H](CCCCN)NC(=O)[C@H](CCCCN)NC(=O)[C@@H](NC(=O)[C@H](C)NC(=O)[C@H](CCSC)NC(=O)[C@H](CCC(N)=O)NC(=O)[C@H](CCCCN)NC(=O)[C@H](CCCN=C(N)N)NC(=O)[C@H](CC(C)C)NC(=O)[C@H](CCCN=C(N)N)NC(=O)[C@@H](NC(=O)[C@H](Cc1ccc(O)cc1)NC(=O)[C@H](CC(N)=O)NC(=O)[C@H](CC(=O)O)NC(=O)[C@@H](NC(=O)[C@H](Cc1ccccc1)NC(=O)[C@@H](NC(=O)[C@H](C)NC(=O)[C@H](CC(=O)O)NC(=O)[C@H](CO)NC(=O)[C@@H](N)Cc1cnc[nH]1)C(C)C)[C@@H](C)O)[C@@H](C)O)C(C)C)C(=O)N[C@@H](CC(C)C)C(=O)N[C@@H](CC(N)=O)C(N)=O [VIP [D-Ile26]]
- Ki (VIP peptides [1]): 72.4 nM
- Ki (VIP peptides [2]): 38.2 nM and 48.9 nM and 33.2 nM

Compound: CC[C@H](C)[C@H](NC(=O)[C@H](CO)NC(=O)[C@H](CC(N)=O)NC(=O)[C@H](CC(C)C)NC(=O)[C@H](Cc1ccc(O)cc1)NC(=O)[C@H](CCCCN)NC(=O)[C@H](CCCCN)NC(=O)[C@@H](NC(=O)[C@H](C)NC(=O)[C@H](CCSC)NC(=O)[C@H](CCC(N)=O)NC(=O)[C@H](CCCCN)NC(=O)[C@H](CCCN=C(N)N)NC(=O)[C@H](CC(C)C)NC(=O)[C@H](CCCN=C(N)N)NC(=O)[C@@H](NC(=O)[C@@H](Cc1ccc(O)cc1)NC(=O)[C@H](CC(N)=O)NC(=O)[C@H](CC(=O)O)NC(=O)[C@@H](NC(=O)[C@H](Cc1ccccc1)NC(=O)[C@@H](NC(=O)[C@H](C)NC(=O)[C@H](CC(=O)O)NC(=O)[C@H](CO)NC(=O)[C@@H](N)Cc1cnc[nH]1)C(C)C)[C@@H](C)O)[C@@H](C)O)C(C)C)C(=O)N[C@@H](CC(C)C)C(=O)N[C@@H](CC(N)=O)C(N)=O [VIP [D-Tyr10]]
- Ki (VIP peptides [1]): 23.4 nM
- Ki (VIP peptides [2]): 3.7 nM and 32.3 nM and 24.5 nM

Compound: H-HSDAVFTANYTRLRKQMAVKKYLNSILN-NH2 [VIP Ala8]
- Ki (VIP peptides [1]): 1.2 nM
- Ki (VIP peptides [2]): 0.17 nM and 1.6 nM and 1.2 nM

Compound: CC[C@H](C)[C@H](NC(=O)[C@H](CO)NC(=O)[C@H](CC(N)=O)NC(=O)[C@H](CC(C)C)NC(=O)[C@H](Cc1ccc(O)cc1)NC(=O)[C@H](CCCCN)NC(=O)[C@H](CCCCN)NC(=O)[C@@H](NC(=O)[C@H](C)NC(=O)[C@H](CCSC)NC(=O)[C@H](CCC(N)=O)NC(=O)[C@H](CCCCN)NC(=O)[C@H](CCCN=C(N)N)NC(=O)[C@H](CC(C)C)NC(=O)[C@H](CCCN=C(N)N)NC(=O)[C@@H](NC(=O)[C@H](Cc1ccc(O)cc1)NC(=O)[C@H](CC(N)=O)NC(=O)[C@H](CC(=O)O)NC(=O)[C@@H](NC(=O)[C@H](Cc1ccccc1)NC(=O)[C@H](NC(=O)[C@H](C)NC(=O)[C@H](CC(=O)O)NC(=O)[C@H](CO)NC(=O)[C@@H](N)Cc1cnc[nH]1)C(C)C)[C@@H](C)O)[C@@H](C)O)C(C)C)C(=O)N[C@@H](CC(C)C)C(=O)N[C@@H](CC(N)=O)C(N)=O [VIP [D-Val5]]
- Ki (VIP peptides [1]): 26.3 nM
- Ki (VIP peptides [2]): 6.2 nM and 44.6 nM and 25.1 nM

Compound: CC[C@H](C)[C@H](NC(=O)[C@H](CO)NC(=O)[C@H](CC(N)=O)NC(=O)[C@H](CC(C)C)NC(=O)[C@H](Cc1ccc(O)cc1)NC(=O)[C@H](CCCCN)NC(=O)[C@H](CCCCN)NC(=O)[C@@H](NC(=O)[C@H](C)NC(=O)[C@H](CCSC)NC(=O)[C@H](CCC(N)=O)NC(=O)[C@H](CCCCN)NC(=O)[C@H](CCCN=C(N)N)NC(=O)[C@@H](CC(C)C)NC(=O)[C@H](CCCN=C(N)N)NC(=O)[C@@H](NC(=O)[C@H](Cc1ccc(O)cc1)NC(=O)[C@H](CC(N)=O)NC(=O)[C@H](CC(=O)O)NC(=O)[C@@H](NC(=O)[C@H](Cc1ccccc1)NC(=O)[C@@H](NC(=O)[C@H](C)NC(=O)[C@H](CC(=O)O)NC(=O)[C@H](CO)NC(=O)[C@@H](N)Cc1cnc[nH]1)C(C)C)[C@@H](C)O)[C@@H](C)O)C(C)C)C(=O)N[C@@H](CC(C)C)C(=O)N[C@@H](CC(N)=O)C(N)=O [VIP [D-Leu13]]
- Ki (VIP peptides [1]): 51.2 nM
- Ki (VIP peptides [2]): 13.5 nM and 23.4 nM and 16.9 nM

Compound: CC[C@H](C)[C@H](NC(=O)[C@H](CO)NC(=O)[C@H](CC(N)=O)NC(=O)[C@H](CC(C)C)NC(=O)[C@H](Cc1ccc(O)cc1)NC(=O)[C@H](CCCCN)NC(=O)[C@H](CCCCN)NC(=O)[C@@H](NC(=O)[C@H](C)NC(=O)[C@H](CCSC)NC(=O)[C@H](CCC(N)=O)NC(=O)[C@H](CCCCN)NC(=O)[C@H](CCCN=C(N)N)NC(=O)[C@H](CC(C)C)NC(=O)[C@H](CCCN=C(N)N)NC(=O)[C@@H](NC(=O)[C@H](Cc1ccc(O)cc1)NC(=O)[C@H](CC(N)=O)NC(=O)[C@H](CC(=O)O)NC(=O)[C@@H](NC(=O)[C@H](Cc1ccccc1)NC(=O)[C@@H](NC(=O)[C@H](C)NC(=O)[C@H](CC(=O)O)NC(=O)[C@H](CO)NC(=O)[C@@H](N)Cc1cnc[nH]1)C(C)C)[C@@H](C)O)[C@@H](C)O)C(C)C)C(=O)N[C@@H](CC(C)C)C(=O)N[C@@H](CC(N)=O)C(=O)O [CAS_37221-79-7]
- Ki (VIP peptides [1]): 2.5 nM
- Ki (VIP peptides [2]): 1.7 nM and 1.6 nM

Compound: CC[C@H](C)[C@H](NC(=O)[C@H](CO)NC(=O)[C@H](CC(N)=O)NC(=O)[C@@H](CC(C)C)NC(=O)[C@H](Cc1ccc(O)cc1)NC(=O)[C@H](CCCCN)NC(=O)[C@H](CCCCN)NC(=O)[C@@H](NC(=O)[C@H](C)NC(=O)[C@H](CCSC)NC(=O)[C@H](CCC(N)=O)NC(=O)[C@H](CCCCN)NC(=O)[C@H](CCCN=C(N)N)NC(=O)[C@H](CC(C)C)NC(=O)[C@H](CCCN=C(N)N)NC(=O)[C@@H](NC(=O)[C@H](Cc1ccc(O)cc1)NC(=O)[C@H](CC(N)=O)NC(=O)[C@H](CC(=O)O)NC(=O)[C@@H](NC(=O)[C@H](Cc1ccccc1)NC(=O)[C@@H](NC(=O)[C@H](C)NC(=O)[C@H](CC(=O)O)NC(=O)[C@H](CO)NC(=O)[C@@H](N)Cc1cnc[nH]1)C(C)C)[C@@H](C)O)[C@@H](C)O)C(C)C)C(=O)N[C@@H](CC(C)C)C(=O)N[C@@H](CC(N)=O)C(N)=O [VIP [D-Leu23]]
- Ki (VIP peptides [1]): 41.6 nM
- Ki (VIP peptides [2]): 3.1 nM and 19.5 nM and 18.6 nM
